For the assay, the target named is T1, bovine carbonic anhydrase-II enzyme (Bos taurus, UniProt P00921).
T1 construct: In vitro experiment of bovine erythrocyte CA-II was conducted in HEPES-Tris buffer; from tissue; host or cells: bovine erythrocytes
Description: In vitro carbonic anhydrase-II inhibition assay (p-nitrophenylacetate substrate). Particulars: bovine erythrocyte CA-II, HEPES-Tris buffer pH 7.4, 25°C, substrate p-nitrophenylacetate 0.7 mM, triplicate. In kind it is biochemical.

Structures are written as SMILES.

T1 sequence (P00921 whole entry): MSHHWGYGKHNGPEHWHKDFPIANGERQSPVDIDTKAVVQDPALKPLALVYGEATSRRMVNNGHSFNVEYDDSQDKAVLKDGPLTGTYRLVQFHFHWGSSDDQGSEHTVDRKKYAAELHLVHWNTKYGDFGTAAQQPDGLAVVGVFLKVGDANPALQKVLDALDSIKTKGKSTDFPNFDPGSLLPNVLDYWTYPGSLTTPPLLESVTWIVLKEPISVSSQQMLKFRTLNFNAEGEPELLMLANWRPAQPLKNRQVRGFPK
Description: In vitro experiment of bovine erythrocyte CA-II was conducted in HEPES-Tris buffer (20 mM) to maintain the pH 7.4. The purified was dissolved in HEPES-Tris buffer (0.1 mg/ml), and the reaction mixture was comprised of 140 μL of the HEPES-Tris buffer, 20 μL of the enzyme, and 20 μL of test compound (prepared in DMSO) and was incubated for 15 min at 25°C. After completion of the preincubation, the reaction was started by adding instantly the substrate p-nitrophenylacetate (P-NPA) at a concentration of 0.7 mM and prepared in methanol. To initiate the reaction, the 96-well plate was placed in a microplate reader and continuous product formation was monitored with a one-minute time interval for 30 min at 400 nm. The assay temperature was strictly controlled and kept at 25°C. All the reaction was conducted in triplicate, and the results are presented as mean.

The IC50 is the concentration needed to halve the response being measured. Take `COc1cc(Br)ccc1O[C@H](C)Cn1cc(-c2ccc(N)cc2)nn1` [Compound 7b, (R)-4-(1-(2-(4-Bromo-2-methoxyphenoxy)propyl)-1H-1,2,3-triazol-4-yl)aniline]: the midpoint of inhibition, the IC50, lay at 13.8 ± 0.63 µM.
